Square brackets hold non-standard residues; d marks the D form. Peptide text beside a SMILES is read from it. Orn(N5-OH,N5-Ac) = CC(=O)N(O)CCC[C@H](N)C(=O)O
How the values were obtained:
C. elegans [1] = experiment: C. elegans larval growth assay: heat-killed E. coli plus trace live E. coli, worm volume; type: in vivo; conditions: for worm growth with dietary supplementation: worms fed heat-killed E. coli plus live entA- or entF- mutant E. coli (Ent-deficient food)
Excerpt: In one embodiment of the inventive technology, the present inventors created a unique assay to facilitate the identification of microbial metabolites that benefit growth and development of host animals. […] This unique feeding condition was used to search for E. coli mutants that fail to support normal worm growth, potentially due to their inability to provide specific metabolites to benefit host animals.
E. coli Keio collection screen. Preparation of heat-killed (HK) OP50 plates followed the procedure described previously (Qi et al., 2017). Standard overnight culture of E. coli OP50 grown in LB broth was concentrated to 1/10 vol and was then heat-killed in a 75° C. water bath for 90 min. The 150 µl of the HK-OP50 was spread onto one side of NGM plate. For preparation of bacterial mutant assay plates, E. coli Keio (Baba et al., 2006) mutants were grown overnight at 37° C. in LB medium with […] kanamycin. 0.2 uL of the bacterial culture (OD600) were seeded to the other side of HK OP50 plate. About 300 synchronized L1 worms were added to the screen plate, and cultured at 20° C., then scored for worm size at day 3 and day 4. The entire library was used for the primary screen; each bacterial mutant was screened once. For the secondary screen, 200 candidate mutants were screened (3 replicates) to confirm the slow growth phenotype.
Chemical supplementation of culture plates. For chemical supplementation, each chemical was dissolved in water or DMSO to generate a stock. The stock solution was added to HK OP50 and then spotted onto NGM plates. […] For CaEDTA supplementation (Kiang et al., 2014), 50 ul of CaEDTA (50 ug/ul) was spread onto the center of the NGM plates seeded with OP50, then different volume of the FeCl3[175 ug/ul] […] Bacterial growth analyses. Overnight cultures were diluted to a final OD600=0.01 in 200 μL of NGM liquid medium. Bacteria were grown in 96-well plates with shaking in a Synergy2 plate reader (BioTek) at 37° C. for 17 h. The OD600 was recorded at 20 min intervals.
Analysis of larval growth by measuring worm size. Synchronized L1 worms were seeded on the indicated NGM plate and grew to the indicated times. Photos were taken and worms volume in each photo were measured by WormSizer software (Moore et al., 2013).

C. elegans [2] = experiment: Iron level in live worms by calcein-AM staining (and pftn-2::GFP reporter); type: in vivo
Experimental: The present inventors employed the commonly used fluorescent cell-permeable dye, calcein AM, of which emission is quenched by iron binding, and applied it to live worms as previously described to estimate the overall iron level in the host.
Live imaging of iron in worms was done as previously described (James et al., 2015). Briefly, worms were collected at different culture conditions, then co-cultured in M9 with 0.05 ug/ML calcein-AM (Invitrogen) for 1 h, then washed 3 times in 1 ml M9. Samples were then mounted for fluorescence microscopy.
For calcein-AM staining, the original images taken with GFP channel were used to measure the intensity. The value of staining intensity was determined by subtracting the background intensity from the calcein-AM stained intestine.

[3] = Stability by NGAL fluorescence assay; type: physicochemical; conditions: same concentration and buffers, room temp, light
Excerpt: FIG. 25. […] Degradation is indicated by increased absorbance. […] Degradation is indicated by increased relative fluorescence. […] For all tests, dilutions were kept at room temp and exposed to light. Error is standard deviation of the mean.

[4] = test system: C. elegans smf-3/DMT1 mutant; experiment: Growth of iron-deficient C. elegans smf-3/DMT1(-) mutant with iron chelator 2,2'-bipyridyl; type: in vivo
Experimental: FIG. 26. […] All tests were done on a smf-3/DMT1(-) mutant strain in a culture media where an iron chelator (2,2′-bipyridyl) was added to reduce the environmental iron level (FIG. 26A). […] This growth delay was rescued by supplementation with Ent, scored as the percentage of the population at the indicated growth stage. […] The entP,fepA: E. coli mutant cannot synthesize or utilize Enterobactin.
SMF-3/DMT1 is a conserved divalent metal transporter that transports iron into intestinal cells. The smf-3/DMT1 mutant has been established as an iron deficiency model in C. elegans. These mutants have defective iron uptake that results in iron deficiency (Romney et al 2011) and delayed growth under iron-poor growth conditions created by addition of an iron chelator (2,2′-bipyridyl) to the culture media (Raj an et al 2019).
To determine if the Enterobactin supplementation was benefiting the worm directly or benefiting the worm through an E. coli-dependent mechanism, the test was repeated using an E. coli double mutant that cannot synthesize or utilize Ent (entP,fepk).

MEL cells = experiment: Erythroid differentiation of MEL cells (color change of cell pellets); type: cell-based, murine; conditions: equimolar supplementation
Experimental: FIG. 27. Ferric Enterobactin supplementation benefits differentiation of erythroid progenitor cells (MEL) to red blood cells. (FIG. 27A) MEL cells were grown with the indicated treatments. Cell pellets are shown. (FIG. 27B) Quantification of MEL color change presented as the average intensity of each cell pellet, normalized to the intensity of the control. Error bars are the standard deviation of three technical replicates.
MEL cells are murine erythroid progenitor cells that are arrested at the proerythroblast stage. In the laboratory, these cells are induced to undergo erythroid differentiation to red blood cells by addition of various chemicals (e.g. 2% DMSO) (Friend, 1971). Erythroid differentiation is an iron-dependent process that results in a color change in the differentiated cells. The present inventors tested if addition of Fe-Ent would positively impact the differentiation of wild-type MEL cells to red blood cells.

C. elegans [5] = experiment: Siderophore toxicity test: worm growth and mitochondrial morphology (mtGFP); type: in vivo; conditions: for defects in growth or mitochondrial morphology: solid medium, worms fed wild-type E. coli
Excerpt: FIG. 8. Bacterial enterobactin promotes C. elegans development. […] (8E) The entA- and entF-mutant E. coli strains colonized the host gut as efficiently as the parental wild-type strain. (FIG. 8F) Cartoon diagram of feeding condition, microscope images and bar graph showing that neither pyoverdine nor ferrichrome caused obvious growth defects in worms fed heat-killed food plus wild-type, live E. coli. (FIG. 8G) Fluorescence microscopy of worms containing mtGFP under the same feeding condition as in (FIG. 8F). […] “n” =number of worms scored. Data are represented as mean±SEM. ***P<0.0001.

Compound: O=C(O)c1cccc(O)c1O [2,3-DHBA, 2,3-dihydroxybenzoic acid]
- worm growth with dietary supplementation (C. elegans [1]): rescued worm growth on entA- but not entF-E. coli

Compound: [Cl][Fe]([Cl])[Cl] [FeCl3, ferric chloride, reference compound]
- worm growth (C. elegans [1]; ferric chloride added to live wild-type E. coli, with heat-killed E. coli): worm growth defect
- worm growth with dietary supplementation (C. elegans [1]): neither suppressed the growth defect
- cellular iron level (C. elegans [2]; animals fed Ent-deficient food): nor raised cellular iron level
- iron level and growth rate defects (C. elegans [2]; iron-deficient condition, worms treated with CaEDTA): both defects were suppressed

Compound: hemin
- worm growth with dietary supplementation (C. elegans [1]): did not impact animal growth

Compound: O=C(N[C@H]1COC(=O)[C@@H](NC(=O)c2cccc([O-])c2[O-])COC(=O)[C@@H](NC(=O)c2cccc([O-])c2[O-])COC1=O)c1cccc([O-])c1[O-].[Fe+3] [Fe-Ent, ferric enterobactin]
- stability of Ent versus Fe-Ent [3]: more stable than Ent alone
- growth of smf-3(-) mutants ([4]; E. coli double mutant that cannot synthesize or utilize Ent): independent of E. coli
- growth of smf-3(-) mutants ([4]; iron chelator 2,2'-bipyridyl in media): faster and to a greater extent than observed for Enterobactin or FeCl3 supplementation alone
- MEL differentiation to red blood cells (MEL cells): increase in MEL differentiation, and this increase was better than supplementation with equimolar FeCl3 alone

Compound: CC(=O)N([O-])CCC[C@@H]1NC(=O)CNC(=O)CNC(=O)CNC(=O)[C@H](CCCN([O-])C(C)=O)NC(=O)[C@H](CCCN([O-])C(C)=O)NC1=O.[Fe+3] [ferrichrome] (cyclo(GGG[Orn(N5-OH,N5-Ac)][Orn(N5-OH,N5-Ac)][Orn(N5-OH,N5-Ac)]))
- worm growth with dietary supplementation (C. elegans [1]): failed to generate a similar impact on worm growth
- defects in growth or mitochondrial morphology (C. elegans [5]): no obvious defects

Compound: pyoverdine
- worm growth with dietary supplementation (C. elegans [1]): failed to generate a similar impact on worm growth
- mitochondrial morphology (mtGFP) (C. elegans [5]; liquid culture): toxic to worms as it damages host mitochondria
- defects in growth or mitochondrial morphology (C. elegans [5]): no obvious defects
